Assay results reported in PubChem BioAssay AID2060353 (Molecular Pharmacology Branch, DTP, NCI, 2025).

Test system: 521955-158-R2-J5-PDC spheroids with stroma, growth inhibition
Experiment: Anticancer human tumor 521955-158-R2-J5-PDC patient-derived pancreatic carcinoma cell line growth inhibition [TAK]
Conditions: for IC50: curve of first compound; for viability, T/C: stronger effect = lower value
From the text: Combinatorial screen of targeted agents with TAK-243 and ipatasertib in multi-cell type tumor spheroids
A high-throughput screen of multi-cell type tumor spheroids was designed to identify active combinations of targeted small molecules and TAK-243 or ipatasertib. Complex spheroids include a stromal component modeled by human endothelial cells (HUVEC) and fibroblasts modeled by human mesenchymal stem cells (MSCs). The concentration ranges selected for each drug and investigational agent were based upon clinically achievable concentrations if the clinical Cmax of the agent was known.
Compounds. The drugs and investigational agents: TAK-243 (785004), ipatasertib (767898), everolimus (733504), selumetinib (741078), bortezomib (756655), trametinib (758246), ixazomib (758254), vemurafenib (761431), dabrafenib (764134), sapanisertib (764658), alpelisib (765974), and copanlisib (816437), were obtained from the National Cancer Institute (NCI) Developmental Therapeutics Program Chemical Repository. The FDA-approved anticancer drug set is available from the NCI Developmental Therapeutics Program. […] The stock solutions were prepared in dimethyl sulfoxide (DMSO, Sigma-Aldrich, St. Louis, MO, cat. D2650) at 800-fold the tested concentration and stored at -70 degrees C prior to their use. All drugs and investigational agents were tested over a range starting from a high concentration at or near the clinical Cmax and decreasing in half-log increments. If the clinical Cmax for an agent had not been determined, the highest concentration tested was 10 microM.
NCI60 Cell Culture. NCI60 cell lines were obtained from the NCI Developmental Therapeutics Program Tumor Repository. For each lot of cells, the Repository performed Applied Biosystems AmpFLSTR Identifiler testing with PCR amplification to confirm consistency with the published Identifier STR profile for each cell line. Cells were kept in continuous culture for no more than 20 passages. The optimal seeding densities for each of the cell lines at each time point assessed were determined prior to performing the concentration response studies. Briefly, the NCI60 human tumor lines were grown as monolayers in RPMI 1640 medium supplemented with 10% FBS and 2 mmol/L L-glutamine.
An additional 2 lines were from the NCI60 cell line panel including melanomas, MALME-3M and SK-MEL-2. Pooled donor human umbilical vein endothelial cells (HUVEC, Lonza, cat. CC-2519) and human mesenchymal stem cells (hMSC, Lonza, cat. PT-2501) were purchased from Lonza (Walkersville, MD).
PDMR cell lines were grown in complete medium (DC medium): Dulbecco's modified Eagle's medium (DMEM)/F12 supplemented with 5% fetal bovine serum (FBS), 2 mM L-glutamine, 100 U/mL penicillin and 100 µg/ml streptomycin, 0.4 µg/ml hydrocortisone, 10 ng/ml epidermal growth factor (EGF) recombinant human protein, 24 µg/mL adenine, and 0.1 mg/mL primocin. During culture from frozen stock vials, PDMR cells were cultured in the same medium containing 10 µM Y-27632 (see Table 3). The PDCs were cultured in complete DMEM/F12 media without 10 microM Y-27632 dihydrochloride for at least two passages prior to the screen. The pooled donor HUVEC and hMSC were cultured in endothelial cell growth medium 2 (PromoCell, Heidelberg, Germany, cat. C-22011) and mesenchymal stem cell growth medium 2 (PromoCell, cat. C-28009), respectively. For all experiments, HUVEC and hMSC were used at passages </=5.
For the pre-screen, cell seeding densities were determined from a titration spanning the range from 5,000 to 313 cells per well. The mct-spheroids including 60% malignant cells, 25% HUVEC and 15% MSC dispensed as a mixture into U-bottom Ultra-Low Attachment 384-well plates (Corning, NY)
High-throughput Drug Combination Screening.
Prior to their inoculation into 384-well plates, malignant cells, HUVEC, and hMSC were removed from T flasks using TrypLE express (Thermo Fisher Scientific, cat. 12605036) and harvested by centrifugation for 5 min at 233 x g. […]
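Note: spheroids exposed to drugs for seven days before readout.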
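Throughout, for viability, T/C: 100% = DMSO vehicle control viability.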

For `CC(C)(C)c1nc(-c2cccc(NS(=O)(=O)c3c(F)cccc3F)c2F)c(-c2ccnc(N)n2)s1` + CC(C)NCC(C(=O)N1CCN(c2ncnc3c2C(C)CC3O)CC1)c1ccc(Cl)cc1, the IC50 (second compound 0.3 µM) was > 10 µM, the IC50 (second compound 0.949 µM) was 9.73 µM and the IC50 (second compound 3 µM) was 6.27 µM. It also gave an IC50 (second compound 9.49 µM) of 4.96 µM, an IC50 (second compound 30 µM) of 1.07 µM and a viability, T/C (second compound 0.3 µM, first compound 0.0316 µM) of 115%. For the same compound, the viability, T/C (second compound 0.3 µM, first compound 0.1 µM) was 135%, the viability, T/C (second compound 0.3 µM, first compound 0.316 µM) was 135% and the viability, T/C (second compound 0.3 µM, first compound 1 µM) was 134%. The viability, T/C (second compound 0.3 µM, first compound 3.16 µM) was 96.8%, the viability, T/C (second compound 0.3 µM, first compound 10 µM) was 60.3% and the viability, T/C (second compound 0.949 µM, first compound 0.0316 µM) was 116%. The viability, T/C (second compound 0.949 µM, first compound 0.1 µM) was 117%, the viability, T/C (second compound 0.949 µM, first compound 0.316 µM) was 109% and the viability, T/C (second compound 0.949 µM, first compound 1 µM) was 100%. The viability, T/C (second compound 0.949 µM, first compound 3.16 µM) was 79.5%, the viability, T/C (second compound 0.949 µM, first compound 10 µM) was 49.1% and the viability, T/C (second compound 3 µM, first compound 0.0316 µM) was 89.8%. It also gave a viability, T/C (second compound 3 µM, first compound 0.1 µM) of 93.8%, a viability, T/C (second compound 3 µM, first compound 0.316 µM) of 72.2% and a viability, T/C (second compound 3 µM, first compound 1 µM) of 92.1%. It also gave a viability, T/C (second compound 3 µM, first compound 3.16 µM) of 75.4%, a viability, T/C (second compound 3 µM, first compound 10 µM) of 32.8% and a viability, T/C (second compound 9.49 µM, first compound 0.0316 µM) of 92.3%. For the same compound, the viability, T/C (second compound 9.49 µM, first compound 0.1 µM) was 83.9%, the viability, T/C (second compound 9.49 µM, first compound 0.316 µM) was 65.1% and the viability, T/C (second compound 9.49 µM, first compound 1 µM) was 66.2%. It also gave a viability, T/C (second compound 9.49 µM, first compound 3.16 µM) of 71.4%, a viability, T/C (second compound 9.49 µM, first compound 10 µM) of 33.4% and a viability, T/C (second compound 30 µM, first compound 0.0316 µM) of 59.7%. It also gave a viability, T/C (second compound 30 µM, first compound 0.1 µM) of 56.7%, a viability, T/C (second compound 30 µM, first compound 0.316 µM) of 50.9% and a viability, T/C (second compound 30 µM, first compound 1 µM) of 51.2%. For the same compound, the viability, T/C (second compound 30 µM, first compound 3.16 µM) was 44.8% and the viability, T/C (second compound 30 µM, first compound 10 µM) was 28.7%.
